In PubChem BioAssay AID1259408 (Genetic Toxicology Data Bank (GENE-TOX), 2018):
Activity calls are given as the source filed them. The rule behind the calls is not given here.

Tested on: GENE-TOX genotoxicity assays, various organisms and cells
Assay: GENE-TOX mutagenicity studies
Details: for call: Assay Type: In vivo carcinogenicity studies
[1] = Species/Cell Type: Arabidopsis species, Assay Type: Gene mutation, Assay Code: ARM-, Evaluation Type: Evaluation A (Pre-1980)
[2] = Species/Cell Type: Drosophila melanogaster, Assay Type: Sex-linked recessive lethal gene mutation, Assay Code: SRL+, Evaluation Type: Evaluation A (Pre-1980)
[3] = Species/Cell Type: Nonhuman, Assay Code: CCG-L, Evaluation Type: Evaluation A (Pre-1980)
[4] = Species/Cell Type: Nonhuman, Assay Type: Sister-chromatid exchange (SCE) in vitro, Assay Code: SC2+D, Dose Response: With dose response, Evaluation Type: Evaluation B (Post-1980)
[5] = Species/Cell Type: Salmonella typhimurium (one or more of the five standard strains: TA98, TA100, TA1535, TA1537, and TA1538), Assay Type: Histidine reverse gene mutation, Ames assay, Assay Code: SAL-, Evaluation Type: Evaluation A (Pre-1980)
[6] = Species/Cell Type: Saccharomyces cerevisiae, Assay Type: Reverse gene mutation, Assay Code: YER+, Evaluation Type: Evaluation A (Pre-1980)
[7] = Species/Cell Type: Nonhuman, Assay Code: CCG+, Evaluation Type: Evaluation A (Pre-1980)
[8] = Species/Cell Type: Escherichia coli polA (W3119 vs P3478), Assay Type: Rec-assay, DNA effects (bacterial DNA repair), Assay Code: RE1+, Evaluation Type: Evaluation A (Pre-1980)
[9] = Species/Cell Type: Human lymphocytes, Assay Type: Sister-chromatid exchange (SCE) in vitro, Assay Code: SCL+, Evaluation Type: Evaluation B (Post-1980)
[10] = Species/Cell Type: Human, Assay Type: Sister-chromatid exchange (SCE) in vitro, Assay Code: SC1+, Evaluation Type: Evaluation B (Post-1980)
[11] = Species/Cell Type: Drosophila melanogaster, Assay Type: Sex-linked recessive lethal gene mutation, Assay Code: SRLT, Evaluation Type: Evaluation A (Pre-1980)
[12] = Species/Cell Type: Saccharomyces cerevisiae, Assay Type: Mitotic recombination or gene conversion, Assay Code: YEC+, Evaluation Type: Evaluation A (Pre-1980)
[13] = Species/Cell Type: Saccharomyces cerevisiae, Assay Type: Mitotic recombination or gene conversion, Assay Code: YEH+, Evaluation Type: Evaluation A (Pre-1980)
[14] = Species/Cell Type: Salmonella typhimurium (one or more of the five standard strains: TA98, TA100, TA1535, TA1537, and TA1538), Assay Type: Histidine reverse gene mutation, Ames assay, Assay Code: SAL+*, Activation: With metabolic activation, Evaluation Type: Evaluation A (Pre-1980)
[15] = Species/Cell Type: Syrian hamster embryo (SA7/SHE) cells, Assay Type: Cell transformation, viral enhanced, Assay Code: CT7+, Evaluation Type: Evaluation A (Pre-1980)

O=c1ccc(=O)[nH][nH]1
mutagenic call (Species/Cell Type: Allium cepa, Assay Type: Chromosome aberrations, Assay Code: ALC+, Evaluation Type: Evaluation A (Pre-1980)): active; positive | mutagenic call [1]: inactive; negative | mutagenic call [2]: active; positive | mutagenic call (Species/Cell Type: Hordeum vulgare (barley), Assay Type: Chromosome aberrations, Assay Code: HOC+, Evaluation Type: Evaluation A (Pre-1980)): active; positive | mutagenic call (Species/Cell Type: Human lymphocytes, Assay Type: Sister-chromatid exchange (SCE) in vitro, Assay Code: SCL+D, Dose Response: With dose response, Evaluation Type: Evaluation B (Post-1980)): active; positive | mutagenic call (Species/Cell Type: Human, Assay Type: Sister-chromatid exchange (SCE) in vitro, Assay Code: SC1+D, Dose Response: With dose response, Evaluation Type: Evaluation B (Post-1980)): active; positive | mutagenic call (Species/Cell Type: Mammalian polychromatic erythrocytes, Assay Type: Micronucleus test, chromosome aberrations, Assay Code: MNTT, Evaluation Type: Evaluation A (Pre-1980)): no conclusion | mutagenic call (Species/Cell Type: Neurospora crassa, Assay Type: Aneuploidy, chromosome aberrations, Assay Code: NEN-, Evaluation Type: Evaluation A (Pre-1980)): inactive; negative | call [3]: inactive; negative | mutagenic call [4]: active; positive | mutagenic call (Species/Cell Type: Nonhuman, Assay Type: Sister-chromatid exchange (SCE) in vitro, Assay Code: SC2-, Evaluation Type: Evaluation A (Pre-1980)): inactive; negative | mutagenic call [5]: inactive; negative | mutagenic call (Species/Cell Type: Vicia faba, Assay Type: Chromosome aberrations, Assay Code: VIC+D, Dose Response: With dose response, Evaluation Type: Evaluation A (Pre-1980)): active; positive

CC1CN1P(=O)(Cc1ccccc1)N1CC1C (centres undefined)
mutagenic call [2]: active; positive

CCCCCCC(=O)N(C)N=O
mutagenic call [6]: active; positive

c1ccc2c(c1)cc1ccc3cccc4c5ccccc5c2c1c34
call [7]: active; positive

O=C1CN(/N=C/c2ccc([N+](=O)[O-])o2)C(=O)N1CO
mutagenic call (Species/Cell Type: Human, Sex: Male, Assay Type: Sperm morphology, Assay Code: SPHT, Evaluation Type: Evaluation A (Pre-1980)): no conclusion

CCCCCN(C)N=O
mutagenic call [8]: active; positive

CC(=O)N1CC1
mutagenic call (Species/Cell Type: Vicia faba, Assay Type: Chromosome aberrations, Assay Code: VIC+, Evaluation Type: Evaluation A (Pre-1980)): active; positive

CNC(=O)Nc1nc2ccccc2s1
mutagenic call (Species/Cell Type: Saccharomyces cerevisiae, Assay Type: Mitotic recombination or gene conversion, Assay Code: YEC-, Evaluation Type: Evaluation A (Pre-1980)): inactive; negative

COc1ccc(-c2csc(N)n2)cc1
mutagenic call (Species/Cell Type: Salmonella typhimurium, Serratia marcesens, Assay Type: Forward and reverse gene mutation, host-mediated assay, Assay Code: HM2T, Evaluation Type: Evaluation A (Pre-1980)): no conclusion

COc1ccc(C(c2ccc(OC)cc2)C(Cl)(Cl)Cl)cc1
mutagenic call (Species/Cell Type: Bacillus subtilis (H17 vs M45), Assay Type: Rec-assay, spot test, DNA effects (bacterial DNA repair), Assay Code: REWT, Evaluation Type: Evaluation A (Pre-1980)): no conclusion | mutagenic call (Species/Cell Type: Drosophila melanogaster, Assay Type: Sex-linked recessive lethal gene mutation, Assay Code: SRL-, Evaluation Type: Evaluation A (Pre-1980)): inactive; negative | mutagenic call (Species/Cell Type: Escherichia coli WP2 UVRA, Assay Type: Tryptophan reverse gene mutation, Assay Code: WPU-*, Activation: With metabolic activation, Evaluation Type: Evaluation A (Pre-1980)): inactive; negative | mutagenic call (Species/Cell Type: Escherichia coli polA (W3119 vs P3478), Assay Type: Rec-assay, DNA effects (bacterial DNA repair), Assay Code: RE1T, Evaluation Type: Evaluation A (Pre-1980)): no conclusion | mutagenic call (Species/Cell Type: Fischer rat embryo (RLV/1706) cells, Assay Type: Cell transformation, viral enhanced, Assay Code: CTR-, Evaluation Type: Evaluation A (Pre-1980)): inactive; negative | mutagenic call (Species/Cell Type: Human diploid fibroblasts, Assay Type: Unscheduled DNA synthesis (UDS) in vitro, DNA effects, Assay Code: UDH-, Evaluation Type: Evaluation A (Pre-1980)): inactive; negative | mutagenic call (Species/Cell Type: Mouse (BALB/c-3T3) cells, Assay Type: Cell transformation, Assay Code: CTB+D, Dose Response: With dose response, Evaluation Type: Evaluation A (Pre-1980)): active; positive | call (Species/Cell Type: Nonhuman, Assay Code: CCG-, Evaluation Type: Evaluation A (Pre-1980)): inactive; negative | mutagenic call (Species/Cell Type: Saccharomyces cerevisiae, Assay Type: Mitotic recombination or gene conversion, Assay Code: YEH-, Evaluation Type: Evaluation A (Pre-1980)): inactive; negative | mutagenic call [5]: inactive; negative | mutagenic call (Species/Cell Type: Syrian hamster embryo (SHE) cells, Assay Type: Cell transformation, clonal assay, Assay Code: CTC-, Evaluation Type: Evaluation A (Pre-1980)): inactive; negative

C#Cc1cn([C@H]2C[C@H](O)[C@@H](CO)O2)c(=O)[nH]c1=O
mutagenic call [9]: active; positive | mutagenic call [10]: active; positive

CN(C)c1ccc2cc3ccc(N(C)C)cc3nc2c1
mutagenic call (Species/Cell Type: Allium cepa, Assay Type: Chromosome aberrations, Assay Code: ALC+D, Dose Response: With dose response, Evaluation Type: Evaluation A (Pre-1980)): active; positive | mutagenic call (Species/Cell Type: Bacillus subtilis (H17 vs M45T), Assay Type: Rec-assay, spot test, DNA effects (bacterial DNA repair), Assay Code: REXT, Evaluation Type: Evaluation A (Pre-1980)): no conclusion | mutagenic call (Species/Cell Type: Chinese hamster ovary (CHO) cells, Assay Type: Forward gene mutation at the HPRT locus, Assay Code: CHO+, Evaluation Type: Evaluation B (Post-1980)): active; positive | mutagenic call [11]: no conclusion | mutagenic call [8]: active; positive | mutagenic call [9]: active; positive | mutagenic call [10]: active; positive | mutagenic call (Species/Cell Type: Mammalian polychromatic erythrocytes, Assay Type: Micronucleus test, chromosome aberrations, Assay Code: MNT+, Evaluation Type: Evaluation B (Post-1980)): active; positive | mutagenic call (Species/Cell Type: Mouse, Sex: Female, Assay Type: Spot test, gene mutation, Assay Code: MST+, Evaluation Type: Evaluation A (Pre-1980)): active; positive | call (Species/Cell Type: Nonhuman, Assay Code: CCGT, Evaluation Type: Evaluation A (Pre-1980)): no conclusion | mutagenic call (Species/Cell Type: Nonhuman, Assay Type: Sister-chromatid exchange (SCE) in vitro, Assay Code: SC2+D, Dose Response: With dose response, Evaluation Type: Evaluation A (Pre-1980)): active; positive | mutagenic call (Species/Cell Type: Saccharomyces cerevisiae, Assay Type: Forward gene mutation, Assay Code: YEFT, Evaluation Type: Evaluation A (Pre-1980)): no conclusion | mutagenic call [12]: active; positive | mutagenic call [13]: active; positive | mutagenic call [14]: active; positive | mutagenic call (Species/Cell Type: Salmonella typhimurium, Assay Type: Forward and reverse gene mutation, host-mediated assay, Assay Code: HMA+, Evaluation Type: Evaluation A (Pre-1980)): active; positive | mutagenic call [15]: active; positive | mutagenic call (Species/Cell Type: Syrian hamster embryo (SHE) cells, Assay Type: Cell transformation, clonal assay, Assay Code: CTCT, Evaluation Type: Evaluation A (Pre-1980)): no conclusion

ClC(Cl)(Cl)Cl
mutagenic call (Species/Cell Type: Mouse, Sex: Male, Assay Type: Sperm morphology, Assay Code: SPI-, Evaluation Type: Evaluation A (Pre-1980)): inactive; negative | call [7]: active; positive | mutagenic call [12]: active; positive | mutagenic call [13]: active; positive | mutagenic call [6]: active; positive | mutagenic call [5]: inactive; negative

C/C=C1/C[C@@H](C)[C@@](C)(O)C(=O)OC[C@H]2CCN3CC[C@@H](OC1=O)[C@@H]23
mutagenic call [11]: no conclusion

Nc1cccc2c1C(=O)c1c(NCCNCCO)ccc(NCCNCCO)c1C2=O
mutagenic call [4]: active; positive

OC[C@H]1O[C@@H](n2cnc3cncnc32)[C@H](O)[C@@H]1O
mutagenic call [1]: inactive; negative

CC(=O)Nc1ccc(NC(C)=O)c2c1C(=O)c1ccccc1C2=O
mutagenic call [14]: active; positive

Cc1cccc(C2CO2)c1 (centres undefined)
mutagenic call (Species/Cell Type: Escherichia coli WP2 UVRA, Assay Type: Tryptophan reverse gene mutation, Assay Code: WPU+D, Dose Response: With dose response, Evaluation Type: Evaluation A (Pre-1980)): active; positive

Cc1ccc2cc3ccc4ccccc4c3cc2c1
mutagenic call (Species/Cell Type: Nonhuman, Assay Type: Sister-chromatid exchange (SCE) in vitro, Assay Code: SC2+, Evaluation Type: Evaluation B (Post-1980)): active; positive | mutagenic call [14]: active; positive | mutagenic call (Species/Cell Type: Syrian hamster embryo (SHE) cells, Assay Type: Cell transformation, clonal assay, Assay Code: CTC+, Evaluation Type: Evaluation A (Pre-1980)): active; positive

CNC(=O)Oc1cc(C)c(N(C)C)c(C)c1
call [3]: inactive; negative

CC(C(=O)O)c1ccc(N2CC=CC2)c(Cl)c1 (centres undefined)
mutagenic call (Species/Cell Type: Human lymphocytes, Assay Type: Sister-chromatid exchange (SCE) in vivo, Assay Code: SCY+, Evaluation Type: Evaluation B (Post-1980)): active; positive

C[CH2][Pb]([CH2]C)([CH2]C)[CH2]C
mutagenic call [15]: active; positive
